The numbers were not newly measured in patent US20060099249A1, “Modified release formulations of at least one form of tramadol” (priority 2002, published 2006), which cites them from elsewhere.

The test system of data set [1] is osteoarthritis. As to conditions: rofecoxib 12.5 mg.
Data set [2] deals with osteoarthritis. To be noted: 12 weeks, celecoxib 100 mg BID, Naproxen 500 mg BID.
Where [3] appears, read: Study No. 058, Nabumetone 1500 mg, over 6-weeks.
[4] abbreviates: Study No. 033, Ibuprofen 2400 mg, over 6-weeks.
The mark [5] stands for this setting: Study No. 040, Ibuprofen 2400 mg, over 6-weeks.

Where two headings read alike, the source gives them in different places.

As for `COc1ccc2cc(CCC(C)=O)ccc2c1` [Nabumetone], in the data set with osteoarthritis [1] (setting [3]), the “WOMAC pain walking on a flat surface, mean difference vs placebo” value is reported as 10 mm.

With `CC(C)Cc1ccc(C(C)C(=O)O)cc1` (stereo not drawn) [Ibuprofen], the “WOMAC pain walking on a flat surface, mean difference vs placebo” value is on record as 13.5 mm with osteoarthritis [1] (setting [4]) and 14.6 mm in the data set with osteoarthritis [1] (setting [5]).

For `CS(=O)(=O)c1ccc(C2=C(c3ccccc3)C(=O)OC2)cc1` [rofecoxib, Rofecoxib], the “WOMAC pain walking on a flat surface, mean difference vs placebo” value in the data set on osteoarthritis [1] (Study No. 029, LS mean change from baseline over 6-weeks) is listed as 14.3 mm; with osteoarthritis [1] (setting [4]) it was 12.4 mm; with osteoarthritis [1] (setting [5]) it was 15.4 mm; in the data set with osteoarthritis [1] (setting [3]), 9.0 mm.

Consider `COc1ccc2cc([C@H](C)C(=O)O)ccc2c1` [Naproxen], for which the “Arthritis Pain VAS change from baseline, LS mean difference vs placebo” value is 7.6 mm in the data set on osteoarthritis [2] (Study No. 020) and 11.2 mm in the data set on osteoarthritis [2] (Study No. 054).
